Experiments:
[1] = test system: KATO-III cell line (FGFR2 amplification); experiment: Cancer cell line cell viability assay (Cell Titer-Glo), 72 hr; format: cell-based; details: Homo sapiens, KATO III
Summary of the method: (§1)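 Following overnight attachment, each line receives compound in triplicate across nine 4-fold dilutions starting at 3 μM, with DMSO backfill for equal solvent. Luminescence after Cell Titer-Glo 2.0 addition gives percent viability versus DMSO control, fitted by 4-parameter logistic for IC50.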

[2] = test system: KG-1 cell line (FGFR 1-fusion); experiment: as above; format: cell-based; details: Homo sapiens, KG-1, KG-1 cell line (FGFR1-fusion)
Summary of the method: as §1

[3] = test system: RT112/84 cell line (FGFR3-fusion); experiment: as above; format: cell-based; details: Homo sapiens, RT112/84, RT112/84 cell line (FGFR3-fusion)
Summary of the method: as §1

FGFR3 = molecular target: T1, FGFR3 (Homo sapiens, UniProt P22607); experiment: Kinase binding assay (kinase-tagged T7 phage, affinity beads, qPCR), Kd; details: read-out: FGFR3 (Kd nM)
T1 construct: made in house; host or cells: E. coli (BL21-derived), T7 phage
T1 sequence (P22607 23-806): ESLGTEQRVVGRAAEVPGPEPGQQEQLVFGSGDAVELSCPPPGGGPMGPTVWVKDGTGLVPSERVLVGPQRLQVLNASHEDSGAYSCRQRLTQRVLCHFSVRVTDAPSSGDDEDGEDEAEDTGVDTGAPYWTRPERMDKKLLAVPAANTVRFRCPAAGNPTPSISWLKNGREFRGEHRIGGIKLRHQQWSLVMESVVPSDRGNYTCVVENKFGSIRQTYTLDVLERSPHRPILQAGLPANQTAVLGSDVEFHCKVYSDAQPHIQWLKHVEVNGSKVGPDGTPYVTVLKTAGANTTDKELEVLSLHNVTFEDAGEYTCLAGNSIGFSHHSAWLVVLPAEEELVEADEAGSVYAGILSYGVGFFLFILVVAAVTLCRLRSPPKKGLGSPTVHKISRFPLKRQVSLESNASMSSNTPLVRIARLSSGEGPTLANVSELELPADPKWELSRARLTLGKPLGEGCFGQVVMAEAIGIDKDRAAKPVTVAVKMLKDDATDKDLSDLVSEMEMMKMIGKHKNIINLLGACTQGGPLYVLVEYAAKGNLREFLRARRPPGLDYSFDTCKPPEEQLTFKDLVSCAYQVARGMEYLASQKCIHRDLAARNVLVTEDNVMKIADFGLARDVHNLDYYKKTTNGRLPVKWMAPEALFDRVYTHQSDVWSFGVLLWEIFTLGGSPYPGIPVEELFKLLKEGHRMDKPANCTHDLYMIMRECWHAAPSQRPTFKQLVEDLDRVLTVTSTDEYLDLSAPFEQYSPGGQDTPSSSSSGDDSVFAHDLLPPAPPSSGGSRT
Summary of the method: (§2)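 Kd obtained by Levenberg–Marquardt Hill-equation fit (slope −1) to qPCR-measured kinase retained on ligand-coated streptavidin beads.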

FGFR1 = molecular target: T2, FGFR1 (Homo sapiens, UniProt P11362); experiment: as above; details: read-out: FGFR1 (Kd nM)
T2 construct: made in house; host or cells: E. coli (BL21-derived), T7 phage
T2 sequence (P11362 22-822): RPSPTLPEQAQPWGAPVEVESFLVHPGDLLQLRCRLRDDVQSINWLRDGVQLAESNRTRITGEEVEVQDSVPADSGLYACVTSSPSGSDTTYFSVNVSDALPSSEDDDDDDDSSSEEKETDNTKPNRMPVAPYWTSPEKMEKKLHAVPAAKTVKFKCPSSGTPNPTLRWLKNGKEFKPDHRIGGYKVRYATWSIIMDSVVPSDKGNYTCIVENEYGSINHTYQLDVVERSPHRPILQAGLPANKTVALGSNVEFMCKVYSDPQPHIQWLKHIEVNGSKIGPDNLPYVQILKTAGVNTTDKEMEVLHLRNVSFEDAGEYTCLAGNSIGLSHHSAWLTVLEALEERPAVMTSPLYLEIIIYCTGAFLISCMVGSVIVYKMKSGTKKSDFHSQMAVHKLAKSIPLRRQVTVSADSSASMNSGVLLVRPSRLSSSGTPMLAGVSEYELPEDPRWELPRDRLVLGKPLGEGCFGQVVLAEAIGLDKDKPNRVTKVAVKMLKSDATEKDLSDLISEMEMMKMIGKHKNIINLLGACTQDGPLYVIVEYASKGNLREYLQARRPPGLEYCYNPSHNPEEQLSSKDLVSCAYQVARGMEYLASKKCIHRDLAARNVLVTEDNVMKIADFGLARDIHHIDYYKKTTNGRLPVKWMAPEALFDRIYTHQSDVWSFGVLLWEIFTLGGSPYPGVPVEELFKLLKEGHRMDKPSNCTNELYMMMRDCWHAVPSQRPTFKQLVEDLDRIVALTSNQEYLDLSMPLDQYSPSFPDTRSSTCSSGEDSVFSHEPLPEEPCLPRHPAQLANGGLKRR
Summary of the method: as §2

FGFR3 (V555M) = molecular target: T3, FGFR3 (V555M) (Homo sapiens, UniProt P22607, V555M); experiment: as above; details: V555M mutant; read-out: FGFR3 (V555M) (Kd nM)
T3 construct: made in house; host or cells: E. coli (BL21-derived), T7 phage
T3 sequence (P22607 23-806 V555M): as the sequence (P22607 23-806) above, with V533M counted along it
Summary of the method: as §2

FGFR4 = molecular target: T4, FGFR4 (Homo sapiens, UniProt P22455); experiment: as above; details: read-out: FGFR4 (Kd nM)
T4 construct: made in house; host or cells: E. coli (BL21-derived), T7 phage
T4 sequence (P22455 22-802): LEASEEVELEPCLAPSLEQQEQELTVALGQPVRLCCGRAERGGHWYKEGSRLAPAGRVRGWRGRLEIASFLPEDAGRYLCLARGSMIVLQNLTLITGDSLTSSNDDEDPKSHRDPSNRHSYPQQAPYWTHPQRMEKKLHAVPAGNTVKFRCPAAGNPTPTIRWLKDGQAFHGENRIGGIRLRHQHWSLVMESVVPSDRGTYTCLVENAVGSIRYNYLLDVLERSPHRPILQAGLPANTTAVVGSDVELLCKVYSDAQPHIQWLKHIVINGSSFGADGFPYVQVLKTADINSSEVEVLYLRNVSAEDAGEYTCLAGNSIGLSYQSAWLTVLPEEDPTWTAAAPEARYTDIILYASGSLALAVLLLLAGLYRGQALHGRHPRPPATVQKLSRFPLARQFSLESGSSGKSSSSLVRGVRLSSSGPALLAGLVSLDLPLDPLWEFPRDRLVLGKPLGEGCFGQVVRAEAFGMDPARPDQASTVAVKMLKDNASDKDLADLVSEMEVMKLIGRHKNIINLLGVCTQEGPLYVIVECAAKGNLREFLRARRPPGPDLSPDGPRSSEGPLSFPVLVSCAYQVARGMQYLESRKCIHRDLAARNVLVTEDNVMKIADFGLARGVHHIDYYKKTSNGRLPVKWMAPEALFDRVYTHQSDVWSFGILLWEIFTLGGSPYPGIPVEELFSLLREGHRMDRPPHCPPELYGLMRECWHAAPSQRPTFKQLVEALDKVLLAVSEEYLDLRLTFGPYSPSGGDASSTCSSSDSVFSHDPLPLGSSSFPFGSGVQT
Summary of the method: as §2

FGFR2 = molecular target: T5, FGFR2 (Homo sapiens, UniProt P21802); experiment: as above; details: read-out: FGFR2 (Kd nM)
T5 construct: made in house; host or cells: E. coli (BL21-derived), T7 phage
T5 sequence (P21802 22-821): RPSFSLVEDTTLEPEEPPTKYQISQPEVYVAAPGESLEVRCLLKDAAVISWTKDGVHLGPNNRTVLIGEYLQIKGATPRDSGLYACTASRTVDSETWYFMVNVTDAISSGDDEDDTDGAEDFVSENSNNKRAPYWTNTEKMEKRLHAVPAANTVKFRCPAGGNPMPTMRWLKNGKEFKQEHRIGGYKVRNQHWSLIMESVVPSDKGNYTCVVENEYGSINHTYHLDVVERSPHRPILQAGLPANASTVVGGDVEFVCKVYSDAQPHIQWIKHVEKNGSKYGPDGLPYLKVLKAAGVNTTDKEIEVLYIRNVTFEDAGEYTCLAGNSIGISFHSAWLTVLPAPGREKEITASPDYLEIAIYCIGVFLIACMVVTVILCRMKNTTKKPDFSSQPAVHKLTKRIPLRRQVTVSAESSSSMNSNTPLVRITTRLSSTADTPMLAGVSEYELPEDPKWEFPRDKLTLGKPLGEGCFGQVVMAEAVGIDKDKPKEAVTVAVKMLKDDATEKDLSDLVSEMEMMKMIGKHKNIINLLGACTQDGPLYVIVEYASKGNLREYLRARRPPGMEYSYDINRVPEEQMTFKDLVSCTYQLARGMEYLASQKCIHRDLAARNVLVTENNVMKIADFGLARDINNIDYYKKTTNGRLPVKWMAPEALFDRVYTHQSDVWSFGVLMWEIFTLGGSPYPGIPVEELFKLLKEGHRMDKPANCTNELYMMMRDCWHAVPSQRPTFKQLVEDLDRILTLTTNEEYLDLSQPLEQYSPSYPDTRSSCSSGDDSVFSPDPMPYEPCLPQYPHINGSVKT
Summary of the method: as §2

Structure (SMILES)	IC50 [1] [nM]	IC50 [2] [nM]	IC50 [3] [nM]	Kd (FGFR3) [nM]	Kd (FGFR1) [nM]	Kd (FGFR3 (V555M)) [nM]	Kd (FGFR4) [nM]	Kd (FGFR2) [nM]
CC(C)NC1(C)CN(c2ncc(-c3n[nH]c4ccc(O[C@H](C)c5c(Cl)cncc5Cl)cc34)cc2F)C1 [Example 117, (R)-1-(5-(5-(1-(3,5-dichloropyridin-4-yl)ethoxy)-1H-indazol-3-yl)-3-fluoropyridin-2-yl)-N-isopropyl-3-methylazetidin-3-amine]	50 to 200	50 to 200	0.1 to 50	1 to 50	1 to 50	1 to 50	1 to 50	1 to 50
CC(C)NC1(C)CN(c2ncc(-c3n[nH]c4cc(F)c(O[C@H](C)c5c(Cl)cncc5Cl)cc34)cc2F)C1 [Example 127, (R)-1-(5-(5-(1-(3,5-dichloropyridin-4-yl)ethoxy)-6-fluoro-1H-indazol-3-yl)-3-fluoropyridin-2-yl)-N-isopropyl-3-methylazetidin-3-amine]	50 to 200	50 to 200	0.1 to 50	1 to 50	1 to 50	1 to 50	1 to 50	1 to 50
C[C@@H](Oc1cc2c(-c3cnc(N4CC(C)(NCC5CC5)C4)c(F)c3)n[nH]c2cc1F)c1c(Cl)cncc1Cl [Example 132, N-(cyclopropylmethyl)-1-[5-[5-[(1R)-1-(3,5-dichloro-4-pyridyl)ethoxy]-6-fluoro-1H-indazol-3-yl]-3-fluoro-2-pyridyl]-3-methyl-azetidin-3-amine]	50 to 200	50 to 200	0.1 to 50	1 to 50	1 to 50	1 to 50	1 to 50	1 to 50
C[C@@H](Oc1ccc2[nH]nc(-c3cnc(N4CC(C)(O)C4)c(F)c3)c2c1)c1c(Cl)cncc1Cl [Example 154, 1-[5-[5-[(1R)-1-(3,5-dichloro-4-pyridyl)ethoxy]-1H-indazol-3-yl]-3-fluoro-2-pyridyl]-3-methyl-azetidin-3-ol]	50 to 200	50 to 200	0.1 to 50	1 to 50	1 to 50	1 to 50	1 to 50	1 to 50
COc1cc2[nH]nc(-c3cnc(N4CC(C)(NCC(C)(C)O)C4)c(F)c3)c2cc1O[C@H](C)c1c(Cl)cncc1Cl [Example 159]	0.1 to 50	0.1 to 50	0.1 to 50	1 to 50	1 to 50	1 to 50	1 to 50	1 to 50
COc1cc2[nH]nc(-c3cnc(N4CC(C)(NC[C@H](C)O)C4)c(F)c3)c2cc1O[C@H](C)c1c(Cl)cncc1Cl [Example 160, (S)-1-((1-(5-(5-((R)-1-(3,5-dichloropyridin-4-yl)ethoxy)-6-methoxy-1H-indazol-3-yl)-3-fluoropyridin-2-yl)-3-methylazetidin-3-yl)amino)propan-2-ol]	0.1 to 50	0.1 to 50	0.1 to 50	1 to 50	1 to 50	1 to 50	1 to 50	1 to 50

The remaining lines, values ahead:

IC50 [1] [nM]	IC50 [2] [nM]	IC50 [3] [nM]	Kd (FGFR3) [nM]	Kd (FGFR1) [nM]	Kd (FGFR3 (V555M)) [nM]	Kd (FGFR4) [nM]	Kd (FGFR2) [nM]	Structure (SMILES)
0.1 to 50	0.1 to 50	0.1 to 50	1 to 50	1 to 50	1 to 50	1 to 50	1 to 50	C[C@@H](Oc1ccc2[nH]nc(-c3ccc(N4CC(C)(NCC(C)(C)O)C4)nc3)c2c1)c1c(Cl)cncc1Cl [Example 115, (R)-1-((1-(5-(5-(1-(3,5-dichloropyridin-4-yl)ethoxy)-1H-indazol-3-yl)pyridin-2-yl)-3-methylazetidin-3-yl)amino)-2-methylpropan-2-ol]
0.1 to 50	0.1 to 50	0.1 to 50	1 to 50	1 to 50	1 to 50	1 to 50	1 to 50	C[C@@H](Oc1ccc2[nH]nc(-c3ccc(N4CC(C)(N5CCC5)C4)nc3)c2c1)c1c(Cl)cncc1Cl [Example 116, 3-[6-[3-(azetidin-1-yl)-3-methyl-azetidin-1-yl]-3-pyridyl]-5-[(1R)-1-(3,5-dichloro-4-pyridyl)ethoxy]-1H-indazole]
0.1 to 50	0.1 to 50	0.1 to 50	1 to 50	1 to 50	1 to 50	1 to 50	1 to 50	C[C@@H](Oc1ccc2[nH]nc(-c3cnc(N4CC(C)(NCC5(O)CC5)C4)c(F)c3)c2c1)c1c(Cl)cncc1Cl [Example 118, (R)-1-(((1-(5-(5-(1-(3,5-dichloropyridin-4-yl)ethoxy)-1H-indazol-3-yl)-3-fluoropyridin-2-yl)-3-methylazetidin-3-yl)amino)methyl)cyclo-propan-1-ol]
0.1 to 50	0.1 to 50	0.1 to 50	1 to 50	1 to 50	1 to 50	1 to 50	1 to 50	COc1cc2[nH]nc(-c3cnc(N4CC(C)(NCC5(O)CC5)C4)c(F)c3)c2cc1O[C@H](C)c1c(Cl)cncc1Cl [Example 119, (R)-1-(((1-(5-(5-(1-(3,5-dichloropyridin-4-yl)ethoxy)-6-methoxy-1H-indazol-3-yl)-3-fluoropyridin-2-yl)-3-methylazetidin-3-yl)amino)methyl)cyclo-propan-1-ol]
0.1 to 50	0.1 to 50	0.1 to 50	1 to 50	1 to 50	1 to 50	1 to 50	1 to 50	COc1cc2[nH]nc(-c3cnc(N4CC(C)(NCC5CC5)C4)c(F)c3)c2cc1O[C@H](C)c1c(Cl)cncc1Cl [Example 126, (R)-N-(cyclopropylmethyl)-1-(5-(5-(1-(3,5-dichloropyridin-4-yl)ethoxy)-6-methoxy-1H-indazol-3-yl)-3-fluoropyridin-2-yl)-3-methylazetidin-3-amine]
0.1 to 50	0.1 to 50	0.1 to 50	1 to 50	1 to 50	1 to 50	1 to 50	1 to 50	C[C@@H](Oc1cc2c(-c3cnc(N4CC(C)(N5CCCC5)C4)c(F)c3)n[nH]c2cc1F)c1c(Cl)cncc1Cl [Example 128, (R)-5-(1-(3,5-dichloropyridin-4-yl)ethoxy)-6-fluoro-3-(5-fluoro-6-(3-methyl-3-(pyrrolidin-1-yl)azetidin-1-yl)pyridin-3-yl)-1H-indazole]
0.1 to 50	0.1 to 50	0.1 to 50	1 to 50	1 to 50	1 to 50	1 to 50	1 to 50	CCNC1(C)CN(c2ncc(-c3n[nH]c4ccc(O[C@H](C)c5c(Cl)cncc5Cl)cc34)cc2F)C1 [Example 149, 1-[5-[5-[(1R)-1-(3,5-dichloro-4-pyridyl)ethoxy]-1H-indazol-3-yl]-3-fluoro-2-pyridyl]-N-ethyl-3-methyl-azetidin-3-amine]
0.1 to 50	50 to 200	0.1 to 50	1 to 50	1 to 50	1 to 50	1 to 50	1 to 50	C[C@@H](Oc1cc2c(-c3cnc(N4CC(C)(N5CCOCC5)C4)c(F)c3)n[nH]c2cc1F)c1c(Cl)cncc1Cl [Example 158, (R)-4-(1-(5-(5-(1-(3,5-Dichloropyridin-4-yl)ethoxy)-6-fluoro-1H-indazol-3-yl)-3-fluoropyridin-2-yl)-3-methylazetidin-3-yl)morpholine]

From US20250368666A1, “INDAZOLE COMPOUNDS” (TYRA BIOSCIENCES, INC., priority 2022, published 2025)
